# Target: T1, DBC-1/ERα interaction (Homo sapiens, UniProt P03372)
# T1 sequence (P03372 1-595): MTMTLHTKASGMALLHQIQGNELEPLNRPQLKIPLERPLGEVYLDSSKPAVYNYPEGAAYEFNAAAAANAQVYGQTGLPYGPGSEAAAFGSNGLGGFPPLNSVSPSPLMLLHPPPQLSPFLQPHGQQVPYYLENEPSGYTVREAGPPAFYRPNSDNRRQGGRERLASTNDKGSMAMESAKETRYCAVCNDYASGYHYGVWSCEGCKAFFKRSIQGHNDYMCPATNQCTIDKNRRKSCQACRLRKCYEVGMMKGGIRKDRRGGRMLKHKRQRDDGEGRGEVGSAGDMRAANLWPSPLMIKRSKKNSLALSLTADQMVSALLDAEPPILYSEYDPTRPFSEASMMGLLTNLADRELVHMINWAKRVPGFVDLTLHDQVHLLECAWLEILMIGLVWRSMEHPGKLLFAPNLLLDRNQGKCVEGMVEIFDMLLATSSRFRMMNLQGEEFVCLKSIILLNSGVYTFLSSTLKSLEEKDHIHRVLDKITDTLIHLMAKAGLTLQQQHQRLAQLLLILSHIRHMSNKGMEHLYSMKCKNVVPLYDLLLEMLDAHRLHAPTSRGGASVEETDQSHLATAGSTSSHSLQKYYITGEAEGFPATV
# Conditions: MCF-7 and BG-1 cells, hormone-free medium; E2 10^−7 M, 4-OHT 10^−6 M, ICI 10^−7 M; one hour
# Text: Results are representative of at least three independent experiments.
structure (smiles),measurement,value
"C[C@]12CC[C@@H]3c4ccc(O)cc4C[C@@H](CCCCCCCCC[S+]([O-])CCCC(F)(F)C(F)(F)F)[C@H]3[C@@H]1CC[C@@H]2O (stereo partly shown) [ICI 182,780]",effect on DBC-1/ERα interaction (co-immunoprecipitation),disrupted the DBC-1/ERα interaction
